Values quoted from earlier work in patent publication US20090202668A1, “Use of a polyphenol in the treatment of the metabolic syndrome and endothelial dysfunction or other vascular sequellae” (priority 2006, published 2009).

Target: T1, CETP (Homo sapiens, UniProt P11597)
T1 sequence (P11597 18-493): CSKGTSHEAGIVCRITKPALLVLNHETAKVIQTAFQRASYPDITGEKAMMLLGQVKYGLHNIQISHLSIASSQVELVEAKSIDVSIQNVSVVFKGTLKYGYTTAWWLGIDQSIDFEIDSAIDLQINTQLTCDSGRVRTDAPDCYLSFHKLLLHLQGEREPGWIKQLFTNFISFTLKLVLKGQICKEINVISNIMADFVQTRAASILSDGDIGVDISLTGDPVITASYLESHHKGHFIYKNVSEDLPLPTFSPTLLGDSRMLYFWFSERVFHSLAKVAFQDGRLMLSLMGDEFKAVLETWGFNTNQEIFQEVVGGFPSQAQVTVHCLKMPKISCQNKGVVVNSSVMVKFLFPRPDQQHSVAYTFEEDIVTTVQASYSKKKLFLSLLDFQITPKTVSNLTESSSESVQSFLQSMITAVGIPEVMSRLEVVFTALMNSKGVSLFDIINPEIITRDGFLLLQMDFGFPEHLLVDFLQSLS

CCOC(=O)N1c2ccc(C(F)(F)F)cc2[C@@H](N(Cc2cc(C(F)(F)F)cc(C(F)(F)F)c2)C(=O)OC)C[C@H]1CC [Torcetrapib]
side effects: major side effects such as death
results of HDL-increasing treatment (CETP-inhibitor): poor results
